Reference: patent publication US5296487A, “Quinazoline derivatives and their preparation” (priority 1990, dated 1994)
In brackets after ≈: the same amount, converted by molar mass. Where a name gives a salt, the structure may show the parent alone.

Legend:
DA2 receptor = target: T1, DA2 receptor (Rattus norvegicus, UniProt P61169); assay: Dopamine receptor (DA2 receptor) binding assay
T1 construct: the striatum were dissected from their brains; from tissue; host or cells: rat striatum (male rats, 150-300 g), washed homogenate pellet
Experimental: Test 1 Dopamine receptor (DA2 receptor) binding assay
The affinity for DA2 receptor of a Test Compound was determined following in vitro receptor binding assays.
Male rats weighing 150-300g were decapitated and the striatum were dissected from their brains. The tissue was homogenized in 30 volumes of buffer which consisted of 50 mM Tris-HCl (pH 7.4 at 25° C.), 120 mM sodium chloride, 5 mM potassium chloride, 1 mM calcium chloride, 1 mM magnesium chloride, 10 μM pargirine, and 0.1% ascorbic acid. The homogenate was centrifuged at 50,000 g for 15 minutes. The pellet was resuspended in 30 volumes of the buffer. The tissue suspension was centrifuged and suspended again in the same way.
Incubation tubes received 100 μl of [phenyl-4-^3 H]spiperone, 100 μl of the Test Compound and 0.8 ml of tissue suspension during binding assays. The concentration of [phenyl-4-^3 H]spiperone was 0.2 nM. The final tissue concentration of rat striatum was 160 μg/ml. […] The filters were counted by liquid scintillation counter.
Specific binding of the [^3 H]spiperone was determined in the presence of 1 μM butaclamol. The IC50 value of the Test Compound was calculated from the data of [^3 H]spiperone binding in the present of 10^-9 M, 10^-8 M, 10^-7 M and 10^-6 M Test Compound.

α1-adrenoceptor = α1-adrenoceptor binding assay; settings: 3H-Prazosin binding, rat whole brain membranes
Experimental: Test 5 [α1-adrenoceptor binding assay]
Male Wistar rats (200-250 g) were killed by decapitation and the brain was placed in ice-cold buffer (0.25 M sucrose, 5 mM Tris/HCl, 1 mM MgCl2, pH 7.5).
Whole brain was homogenized in 10-20 volume (w/v) of ice-cold buffer for 20 strokes using a motor-drived Teflon-glass homogenizer. The homogenate was centrifuged at 1,000 g for 10 min at 4° C., and the pellet was discarded. The supernatant was centrifuged at 30,000 g for 20 min at 4° C. The pellet obtained was washed by
resuspension in 20 ml ice-cold 50 mM Tris/HCl, 10 mM MgCl2 buffer (pH 7.5) and recentrifuged at 30,000 g for 20 min at 4° C. The final pellet was resuspended in 15 volumes of original wet weight of 50 mM Tris/HCl, 10 mM MgCl2 buffer (pH 7.5) for use in the assays.
For ^3 H-Prazosin binding to rat brain, membrane suspensions prepared from rat whole brain (0.3-0.4 mg protein) were incubated by constant shaking for 20 min at 30° C. with ^3 H-Prazosin ([…]) and increasing concentrations of test compounds (10^-6 -10^-9 M) in a total volume of 550 μl of 50 mM Tris/HCl, 10 mM MgCl2 buffer containing 0.1 mg/ml bovine serum albumin (pH 7.5). […] These filter disks were counted by liquid scintillation counter with an efficacy of 40%. […] The concentration of the test compound inhibiting 50% of the specific binding of ^3 H-Prazosin was calculated by log profit analysis of the binding data.

[1] = test system: reserpine-induced DOPA accumulation; assay: Inhibition of reserpine-induced DOPA accumulation; format: in vivo, Male SD rats; settings: dose 3.2 mg/kg, orally, 2 hours before sacrifice; striatum
Experimental: Test 2 [Inhibition of reserpine-induced DOPA accumulation]
Male SD rats weighing 300-400 g were used in this test. Rats were pretreated with reserpine (1 mg/kg, S.C.) 17-19 hours before sacrifice and then fasted. Test Compound was given orally to the rats 2 hours before sacrifice. [m-Hydroxybenzylhydrazine (100 mg/kg, i.p.) was given 30 minutes before sacrifice.] Each rat was exposed to microwaves using a head-focus microwave applicator for 1.5 seconds. The whole brain was removed and further separated into the striatum.
DOPA was determined as follows; the striatum was homogenized in 9 volumes of 0.1N perchloric acid solution (0.4% EDTA·2Na). The homogenate was centrifuged at 10,000 rpm for 1 minutes. The supernatant was applied to high performance liquid chromatography.

[2] = Hypotensive effect on spontaneous hypertensive rats; format: in vivo, male spontaneous hypertensive rats; settings: dose 0.32 mg/kg, orally
Experimental: Test 3 [Hypotensive effect on spontaneous hypertensive rats] 15 to 25-Week-old male spontaneous hypertensive rats with mean arterial blood pressure of about 160-200 mmHg, weighing 300-350 g, were used. The animals were cannulated in the left femoral artery and the mean blood pressure and heart rate were measured with a pressure-transducer. The animals were deprived of food for about 18 hours before oral dosing. The Test Compound was suspended in 0.5% methylcellulose, and given orally.

[3] = Stability (storage at accelerated conditions); format: physicochemical; settings: for Residual Amount (%): 12960 min
Experimental: Test Compounds were stored for 9 days at accelerated conditions as shown in the following table, and the residual amounts of them were determined by a High Performance Liquid Chromatography (HPLC).

[4] = Solubility of the test compounds in various solvents; format: physicochemical; settings: for Solubility: ambient temperature
Experimental: The solubility of the test compounds in various solvents was measured at ambient temperature.

[5] = Effect on Renal Blood Flow; format: in vivo, Male beagle dogs; settings: 10 μg/kg i.v., anesthetized dogs
Experimental: Test 6 Effect on Renal Blood Flow
Male beagle dogs, weighing 7-12 kg were anesthetized with sodium pentobarbital (30 mg/kg i.v.). The left renal artery was exposed retroperitoneally through a flank incision, and an electromagnetic flowmeter probe were placed around the left renal artery to measure renal blood flow.

[6] = Effect on Plasma Triglyceride Level; format: in vivo, Male SD rats; settings: dose 10 mg/kg/day, orally once a day for two weeks; STZ-induced diabetic rats
Experimental: Test 7 [Effect on Plasma Triglyceride Level]
Male SD rats weighing 180-230 g were made diabetic by intravenous administration of streptozotocin (STZ) at a dose of 60 mg/kg dissolved in 2 mM citrate buffer (pH 4.5). One week later, the rats were grouped by plasma triglyceride level and test compound were administered orally once a day for two weeks. Then blood samples were collected from orbital vein, and plasma triglyceride levels were measured enzymatically (Triglyceride G-Test WAKO). Control group received 0.5% methyl cellulose.

[7] = 70° C./75% Relative Humidity, 9 days, HPLC

T1 sequence (P61169 whole entry): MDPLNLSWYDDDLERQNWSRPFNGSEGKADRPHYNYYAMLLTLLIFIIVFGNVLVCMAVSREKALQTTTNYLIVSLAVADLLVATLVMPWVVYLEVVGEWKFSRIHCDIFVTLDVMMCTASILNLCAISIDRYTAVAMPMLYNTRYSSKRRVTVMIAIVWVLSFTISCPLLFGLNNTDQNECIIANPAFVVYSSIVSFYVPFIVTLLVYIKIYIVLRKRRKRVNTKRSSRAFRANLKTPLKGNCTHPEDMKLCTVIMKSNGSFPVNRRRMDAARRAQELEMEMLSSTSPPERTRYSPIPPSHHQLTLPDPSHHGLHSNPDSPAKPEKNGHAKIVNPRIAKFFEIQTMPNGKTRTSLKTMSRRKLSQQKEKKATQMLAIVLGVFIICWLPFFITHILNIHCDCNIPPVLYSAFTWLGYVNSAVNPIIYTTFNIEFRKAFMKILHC

O=c1[nH]c2cc(NO)ccc2c(=O)n1CCCCN1CC=C(c2ccccc2)CC1 [Compound A, 7-hydroxyamino-3-[4-(4-phenyl-1,2,3,6-tetrahydropyridin-1-yl)butyl]-1,2,3,4-tetrahydroquinazoline-2,4-dione]
IC50 (DA2 receptor): 8.1 nM
IC50 (α1-adrenoceptor): 20 nM
Inhibition (%) [1]: 33%
Maximum decrease of blood pressure (%) [2]: 34%

CS(=O)(=O)Nc1ccc2[nH]c(=O)n(CCCCN3CC=C(c4ccccc4)CC3)c(=O)c2c1 [Compound B, 3-[4-(4-phenyl-1,2,3,6-tetrahydropyridin-1-yl)butyl]-6-methylsulfonylamino-1,2,3,4-tetrahydroquinazoline-2,4-dione]
IC50 (α1-adrenoceptor): 38 nM

CCS(=O)(=O)Nc1ccc2[nH]c(=O)n(CCCCN3CC=C(c4ccccc4)CC3)c(=O)c2c1 [Compound C, 6-Ethylsulfonylamino-3-[4-(4-phenyl-1,2,3,6-tetrahydropyridin-1-yl)butyl]-1,2,3,4-tetrahydroquinazoline-2,4-dione]
remaining at 216 h ([3]; 70° C., 9 days, HPLC, read-out: Residual Amount (%)): 83.4%
Residual Amount (%) [3, 7]: 69.6%
Solubility ([4]; isotonic saline): 0.00941 mg/mL (≈ 19.5 µM)
Solubility ([4]; water): 0.0074 mg/mL (≈ 15.3 µM)
RBF (% change) [5]: +29 % change
plasma triglyceride [6]: 138.2 ± 47.0 mg/dL

CCS(=O)(=O)Nc1ccc2[nH]c(=O)n(CCCCN3CC=C(c4ccccc4)CC3)c(=O)c2c1 [Compound D, 6-ethylsulfonylamino-3-[4-(4-phenyl-1,2,3,6=tetrahydropyridin-1-yl)butyl]-1,2,3,4=tetrahydroquinazoline-2,4-dione sulfate]
stability (in words) [3]: better solubility and stability
Residual Amount (%) ([3]; 70° C., 9 days, HPLC): 98.2%
Residual Amount (%) [3, 7]: 99.7%
Solubility ([4]; isotonic saline): 0.183 mg/mL
solubility (in words) ([4]; versus the product of Example 32): better solubility
Solubility ([4]; water): 0.733 mg/mL
